Test results from patent publication US20090325952A1, “PYRAZOLO[3,4-B]PYRIDINE COMPOUNDS, AND THEIR USE AS PDE4 INHIBITORS” (Glaxo Group Limited, priority 2006, published 2009).

Molecular target: PDE5 (human recombinant) (Homo sapiens, UniProt O76074)
Assay: Inhibition of PDE5 activity (FP or SPA assays)
Format: biochemical
Settings: selectivity PDE4B over PDE5
Description: Human recombinant PDE5 is disclosed in K. Loughney et al., “Isolation and characterisation of cDNAs encoding PDE5A, a human cGMP-binding, cGMP-specific 3′,5′-cyclic nucleotide phosphodiesterase”, Gene, 1998, 216, 139-147.
The ability of compounds to inhibit catalytic activity at PDE4B or 4D (human recombinant), PDE3 (from bovine aorta), PDE5 (human recombinant) or PDE6 (from bovine retina) can optionally be determined by Scintillation Proximity Assay (SPA) in a 96-well format.
Test compounds (as a solution in DMSO, suitably about 2 microlitre (ul) volume of DMSO solution) are preincubated at ambient temperature (room temperature, e.g. 19-23° C.) in Wallac Isoplates (code 1450-514) with PDE enzyme in 50 mM Tris-HCl buffer pH 7.5, 8.3 mM MgCl2, 1.7 mM EGTA, 0.05% (w/v) bovine serum albumin for 10-30 minutes (usually 30 minutes). The enzyme concentration is adjusted so that no more than 20% hydrolysis of the substrate defined below occurs in control wells without compound, during the incubation. […] Bound radioactive product is measured using a WALLAC TRILUX 1450 Microbeta scintillation counter. […] Curves are analysed using ActivityBase and XLfit (ID Business Solutions Limited, 2 Ocean Court, Surrey Research Park, Guildford, Surrey GU2 7QB, United Kingdom) Results are expressed as pIC50 values. […]

## CCc1nc2c(cnn2CC)c(NC2CCOCC2)c1CNC(=O)c1ccc(NC(=O)CCCCCCCN(C)CCO)cc1 [Example 1B, N-{[1,6-diethyl-4-(tetrahydro-2H-pyran-4-ylamino)-1H-pyrazolo[3,4-b]pyridin-5-yl]methyl}-4-({8-[(2-hydroxyethyl)(methyl)amino]octanoyl}amino)benzamide]
  PDE4B inhibition compared with PDE5 inhibition (pIC50 values): inhibit PDE4B more strongly than they inhibit PDE3, PDE5 and PDE6
